# Reference: patent US7868006B2, “Heterocyclic substituted piperazines with CXCR3 antagonist activity” (Schering Corporation, priority 2005, dated 2011)
# Target: T1, human CXCR3 (N-delta 4) (Homo sapiens, UniProt P49682)
# T1 construct: CD8 leader (N); Flag tag (N); expressed in transfected cells; host or cells: mouse pro-B Ba/F3 cells, stably transfected with pME18Sneo-hCXCR3 (N-delta 4); membrane preparation
# T1 sequence (P49682 5-368 limits assumed): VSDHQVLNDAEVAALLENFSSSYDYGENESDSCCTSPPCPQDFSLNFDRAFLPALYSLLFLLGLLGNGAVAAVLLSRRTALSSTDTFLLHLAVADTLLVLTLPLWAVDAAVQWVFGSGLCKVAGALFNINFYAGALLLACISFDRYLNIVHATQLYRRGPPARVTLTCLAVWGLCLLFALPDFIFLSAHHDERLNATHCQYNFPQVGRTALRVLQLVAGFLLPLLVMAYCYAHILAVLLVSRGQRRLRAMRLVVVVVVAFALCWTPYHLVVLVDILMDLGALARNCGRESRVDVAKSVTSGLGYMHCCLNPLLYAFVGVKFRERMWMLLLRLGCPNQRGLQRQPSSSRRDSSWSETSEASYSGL
# Assay: Human CXCR3 (N-delta 4) Scintillation Proximity Assay (SPA), [125I] IP-10 binding
# Conditions: Ba/F3-hCXCR3 (N-delta 4) membranes, 25 pM [125I] IP-10; read-out: IC50 value
# Text: The inventive compounds can readily be evaluated to determine activity at The CXCR3 receptors by known methods, such as, for example, Development of Human CXCR3 (N-delta 4) Binding Assay.
# Cloning and Expression of Human CXCR3 (N-delta 4):
# The DNA encoding human CXCR3 was cloned by PCR using human genomic DNA (Promega, Madison, Wis.) as a template. The PCR primers were designed based on the published sequence of human orphan receptor GPR9 (1) with incorporated restriction sites, a Kozak consensus sequence, CD8 leader and Flag tag. The PCR product was subcloned into the mammalian expression vector pME18Sneo, a derivative of the SR-alpha expression vector (designated as pME18Sneo-hCXCR3 (N-delta 4).
# IL-3-dependent mouse pro-B cells Ba/F3 were transfected by electroporation in 0.4 ml Dulbecco's PBS containing 4×10^6 cells with 20 μg of pME18Sneo-hCXCR3 (N-delta 4) plasmid DNA. Cells were pulsed at 400 Volts, 100 OHMs, 960 μFd. The transfected cells were under selection with 1 mg/ml G418 (Life Technologies, Gaithersburg, Md.). G418-resistant Ba/F3 clones were screened for CXCR3 expression by specific binding of [^125I] IP-10 (NEN Life Science Products, Boston, Mass.).
# Preparation of Ba/F3-hCXCR3 (N-delta 4) Membranes:
# Ba/F3 cells expressing human CXCR3 (N-delta 4) were pelleted and resuspended in the lysis buffer containing 10 mM HEPES, pH 7.5 and Complete® protease inhibitors (1 tablet per 100 ml) (Boehringer Mannheim, Indianapolis, Ind.) at a cell density of 20×10^6 cells per ml. After 5 minutes incubation on ice, cells were transferred to 4639 cell disruption bomb (Parr Instrument, Moline, Ill.) and applied with 1,500 psi of nitrogen for 30 minutes on ice. Large cellular debris was removed by centrifugation at 1,000×g. Cell membrane in the supernatant was sedimented at 100,000×g. The membrane was resuspended in the lysis buffer supplemented with 10% sucrose and stored at −80° C. Total protein concentration of the membrane was determined by BCA method from Pierce (Rockford, Ill.).
# Human CXCR3 (N-delta 4) Scintillation Proximity Assay (SPA):
# For each assay point, 2 μg of membrane was preincubated for 1 hr with 300 μg wheat germ agglutinin (WGA) coated SPA beads (Amersham, Arlington Heights, Ill.) in the binding buffer (50 mM HEPES, 1 mM CaCl2, 5 mM MgCl2, 125 mM NaCl, 0.002% NaN3, 1.0% BSA) at room temperature. The beads were spun down, washed once, resuspended in the binding buffer and transferred to a 96-well Isoplate (Wallac, Gaithersburg, Md.). 25 pM of [^125I] IP-10 with tested compounds in a series of titration were added to start the reaction. After 3 hr reaction at room temperature, the amount of [^125I] IP-10 bound to the SPA beads was determined with a Wallac 1450 Microbeta counter.
# The Ki values for the various example compounds of the present invention are given in the afore-mentioned Table 1. From these values, it would be apparent to the skilled artisan that the compounds of the invention have excellent utility CXCR3 antagonists.
row,IC50 [nM],Structure (SMILES)
1,0.2,CC[C@H]1CN(c2nc(N)c(-c3nnc(C)o3)nc2Cl)CCN1C1CCN(Cc2ccc(Cl)cc2/C(N)=N\O)CC1 [Compound 1]

# Same assay, conditions: IC50 rating; Ba/F3-hCXCR3 (N-delta 4) membranes, 25 pM [125I] IP-10; read-out: IC50
row,IC50 [nM],Structure (SMILES)
1,< 25,CC[C@H]1CN(c2nc(N)c(-c3nnc(CO)o3)nc2Cl)CCN1C1CCN(Cc2ccc(Cl)cc2/C(N)=N\O)CC1 [Compound 2]
2,< 25,CC[C@H]1CN(c2nc(N)c(-c3nnc(C)o3)nc2Cl)CCN1C1CCN([C@@H](CO)c2ccc(Cl)cc2)CC1 [Compound 5]
3,< 25,CC[C@H]1CN(c2nc(N)c(-c3nnc(CO)o3)nc2Cl)CCN1C1CCN([C@@H](CO)c2ccc(Cl)cc2)CC1 [Compound 6]
4,< 25,CC[C@H]1CN(c2nc(N)c(-c3nnc(NC(C)C)o3)nc2Cl)CCN1C1CCN(C(=O)c2ccc(Cl)nc2N)CC1 [Compound 11]
5,< 25,CCNc1nnc(-c2nc(Cl)c(N3CCN(C4CCN(C(=O)c5ccc(Cl)nc5N)CC4)[C@@H](CC)C3)nc2N)o1 [Compound 14]
6,< 25,CC[C@H]1CN(c2nc(N)c(-c3nnc(N)o3)nc2Cl)CCN1C1CCN(C(=O)c2ccc(Cl)nc2N)CC1 [Compound 17]
7,< 25,CC[C@H]1CN(c2nc(N)c(-c3nnc(C)o3)nc2Cl)CCN1C1CCN(C(=O)c2cc(F)c(Cl)nc2N)CC1 [Compound 19]
8,< 25,CC[C@H]1CN(c2ncc(-c3nnc(C)o3)nc2C)CCN1C1CCN(C(=O)c2ccc(Cl)cc2N)CC1 [Compound 21]
9,< 25,CC[C@H]1CN(c2nc(N)c(-c3nnc(C)o3)nc2Cl)CCN1C1CCN(C(=O)c2ccc(Cl)nc2N)CC1 [Compound 23]
10,< 25,CC[C@H]1CN(c2nc(N)c(-c3nnc(C(C)(C)O)o3)nc2Cl)CCN1C1CCN(Cc2ccc(Cl)cc2)CC1 [Compound 28]
11,< 25,CC[C@H]1CN(c2nc(N)c(-c3nnc(CN)o3)nc2Cl)CCN1C1CCN(C(=O)c2ccc(Cl)nc2N)CC1 [Compound 34]
12,< 25,CC[C@H]1CN(c2ncc(-c3nnc(C)[nH]3)nc2Cl)CCN1C1CCN(C(=O)c2ccc(Cl)nc2N)CC1 [Compound 37]
13,< 25,CC[C@H]1CN(c2nc(N)c(-c3nnc(C)o3)nc2Cl)CCN1C1CCN(C(=O)c2ccc(Cl)cc2)CC1 [Compound 43]
14,< 25,CC[C@H]1CN(c2nc(N)c(-c3nnc(CNC(=O)C(F)(F)F)o3)nc2Cl)CCN1C1CCN(C(=O)c2ccc(Cl)nc2N)CC1 [Compound 46]
15,< 25,CC[C@H]1CN(c2nc(N)c(-c3nnc(CO)o3)nc2Cl)CCN1C1CCN([C@@H](C(=O)OC)c2ccc(Cl)cc2)CC1 [Compound 47]

# Continued, molecule first:
row,Structure (SMILES),IC50 [nM]
1,CC[C@H]1CN(c2nc(N)c(-c3nnc(C)o3)nc2Cl)CCN1C1CCN(Cc2ccc(Cl)cc2/C(N)=N\O)CC1 [Compound 1],< 25
2,CC[C@H]1CN(c2nc(N)c(-c3nnc(N)o3)nc2Cl)CCN1C1CCN(Cc2ccc(Cl)cc2F)CC1 [Compound 3],< 25
3,CC[C@H]1CN(c2nc(N)c(-c3nnc(C)o3)nc2Cl)CCN1C1CCN(Cc2ccc(Cl)cc2)CC1 [Compound 4],< 25
4,CC[C@H]1CN(c2nc(N)c(-c3nnc(C)o3)nc2Cl)CCN1C1CCN(Cc2ccc(Cl)c(OCCS(C)(=O)=O)c2)CC1 [Compound 7],< 25
5,CC[C@H]1CN(c2nc(N)c(-c3nnc(C)o3)nc2Cl)CCN1C1CCN(Cc2ccc(Cl)cc2C(N)=O)CC1 [Compound 8],< 25
6,CC[C@H]1CN(c2nc(N)c(-c3nnc(N)o3)nc2Cl)CCN1C1CCN(Cc2ccc(C#N)cc2)CC1 [Compound 9],< 25
7,CCNc1nnc(-c2cnc(N3CCN(C4CCN(C(=O)c5ccc(Cl)nc5N)CC4)[C@@H](CC)C3)c(Cl)n2)o1 [Compound 10],< 25
8,CCCNc1nnc(-c2nc(Cl)c(N3CCN(C4CCN(C(=O)c5ccc(Cl)nc5N)CC4)[C@@H](CC)C3)nc2N)o1 [Compound 12],< 25
9,CCNc1nnc(-c2cnc(N3CCN(C4CCN(C(=O)c5ccc(Cl)nc5N)CC4)[C@@H](CC)C3)c(C)n2)s1 [Compound 13],< 25
10,CC[C@H]1CN(c2nc(N)c(-c3nnc(N)o3)nc2Cl)CCN1C1CCN(Cc2ccc(Cl)nc2)CC1 [Compound 15],< 25
11,CCNc1nnc(-c2cnc(N3CCN(C4CCN(C(=O)c5ccc(Cl)nc5N)CC4)[C@@H](CC)C3)c(C)n2)o1 [Compound 16],< 25
12,CCNc1nnc(-c2cnc(N3CCN(C4CCN(C(=O)c5ccc(Cl)nc5N)CC4)[C@@H](CC)C3)c(Cl)n2)s1 [Compound 18],< 25
13,CCNc1nnc(-c2nc(Cl)c(N3CCN(C4CCN(C(=O)c5ccc(Cl)cc5)CC4)[C@@H](CC)C3)nc2N)o1 [Compound 20],< 25
14,CC[C@H]1CN(c2nc(N)c(C3=NCCN3)nc2Cl)CCN1C1CCN(C(=O)c2ccc(Cl)nc2N)CC1 [Compound 24],< 25
15,CC[C@H]1CN(c2nc(N)c(-c3nnc(CO)o3)nc2Cl)CCN1C1CCN(C(=O)c2ccc(Cl)nc2N)CC1 [Compound 25],< 25
16,CC[C@H]1CN(c2nc(N)c(-c3nnc(NCC(=O)OC)o3)nc2Cl)CCN1C1CCN(C(=O)c2ccc(Cl)nc2N)CC1 [Compound 26],< 25

row,Structure (SMILES),IC50 [nM]
1,CC[C@H]1CN(c2ncc(C3=NCCN3)nc2Cl)CCN1C1CCN(C(=O)c2ccc(Cl)nc2N)CC1 [Compound 27],< 25
2,CC[C@H]1CN(c2nc(N)c(-c3nnc(N(C)C)o3)nc2Cl)CCN1C1CCN(Cc2ccc(Cl)cc2)CC1 [Compound 29],< 25
3,CC[C@H]1CN(c2nc(N)c(-c3nnc(N)[nH]3)nc2Cl)CCN1C1CCN(C(=O)c2ccc(Cl)nc2N)CC1 [Compound 30],< 25
4,CC[C@H]1CN(c2nc(N)c(-c3nnc(C)o3)nc2Cl)CCN1C1CCN(C(=O)c2cc(F)c(Cl)nc2Cl)CC1 [Compound 31],< 25
5,CC[C@H]1CN(c2ncc(-c3nnc(C)o3)nc2Cl)CCN1C1CCN(C(=O)c2ccc(Cl)cc2)CC1 [Compound 32],< 25
6,CC[C@H]1CN(c2ncc(-c3nnc(C)o3)nc2Cl)CCN1C1CCN(C(=O)c2cc(F)c(Cl)nc2Cl)CC1 [Compound 33],< 25
7,CC[C@H]1CN(c2ncc(-c3nnc(C)o3)nc2C)CCN1C1CCN(C(=O)c2ccc(Cl)nc2N)CC1 [Compound 35],< 25
8,CC[C@H]1CN(c2nc(N)c(-c3nnc(N)o3)nc2Cl)CCN1C1CCN(C(=O)c2ccc(Cl)cc2)CC1 [Compound 36],< 25
9,CC[C@H]1CN(c2ncc(-c3nc[nH]n3)nc2C)CCN1C1CCN(C(=O)c2ccc(Cl)nc2N)CC1 [Compound 38],< 25
10,CC[C@H]1CN(c2nc(N)c(-c3nnc(C(N)=O)o3)nc2Cl)CCN1C1CCN(C(=O)c2ccc(Cl)nc2N)CC1 [Compound 40],< 25
11,CC[C@H]1CN(c2nc(N)c(-c3nnc(NCCO)o3)nc2Cl)CCN1C1CCN(C(=O)c2ccc(Cl)nc2N)CC1 [Compound 41],< 25
12,CCNC(=O)Nc1nnc(-c2nc(Cl)c(N3CCN(C4CCN(C(=O)c5ccc(Cl)nc5N)CC4)[C@@H](CC)C3)nc2N)o1 [Compound 42],< 25
13,CC[C@H]1CN(c2ncc(-c3n[nH]c(N)n3)nc2C)CCN1C1CCN(C(=O)c2ccc(Cl)nc2N)CC1 [Compound 44],< 25
14,CC[C@H]1CN(c2nc(N)c(-c3nnc(CO)o3)nc2Cl)CCN1C1CCN(Cc2ccc(Cl)cc2C#N)CC1 [Compound 45],< 25
15,CC[C@H]1CN(c2nc(N)c(-c3nnc(C)o3)nc2Cl)CCN1C1CCN(Cc2ccc(Cl)cc2C#N)CC1 [Compound 48],< 25
16,CC[C@H]1CN(c2ncc(-c3nc[nH]n3)nc2C)CCN1C1CCN(C(=O)c2ccc(Cl)cc2)CC1 [Compound 49],< 25
